According to patent US20050164994A1, “Treatment of genitourinary tract disorders” (Control Deliver Systems, Inc., priority 2001, published 2005):
Several values for one entry are separate records, joined by “and”; a condition that tells them apart may be missing. Identical values can stand only once.

Test: Canine study: codrug remaining in 5 mg pellets implanted in the prostate
Format: in vivo
Details: dog prostate, 5 mg implant
Method: A canine study was performed using a codrug of 5-FU and fluocinolone acetonide (Fa) to evaluate the release rate of the codrug in prostate tissue. The results of that study are detailed in FIGS. 1-3. Two 5 mg pellets of the codrug were implanted in the prostate, and the animals were humanely sacrificed on postoperative days, as indicated. The prostates were removed and levels of the codrug in the pellets determined.

In the case of `CC1(C)O[C@@H]2CC3C4C[C@H](F)C5=CC(=O)C=C[C@]5(C)[C@@]4(F)[C@@H](O)C[C@]3(C)[C@]2(C(=O)COC(=O)CC(=O)n2c(=O)[nH]cc(F)c2=O)O1` (some centres unmarked) [5-FU + FA], the “Codrug Remaining (single pellet)” value (sacrificed at 28 days) is reported as 4.27 mg and 4.24 mg and 4.04 mg and 3.50 mg and 4.14 mg and 4.18 mg and 4.12 mg and 4.23 mg and the “Codrug Remaining (single pellet)” value (sacrificed at 42 days) is reported as 3.50 mg and 3.33 mg and 3.89 mg and 4.12 mg.
